Reference: patent US8735412B2, “Sulfoximine-substituted anilinopyrimidine derivatives as CDK inhibitors, the production thereof, and use as medicine” (Bayer Intellectual Property GmbH, priority 2008, dated 2014)
pIC50: −log10 of the molar value. Like-named read-outs stand apart in the source and are kept apart here.

Experiments:
[1] = tested on: HeLa-MaTu cervical carcinoma cells; assay: Proliferation assay (Assay 4), crystal violet staining; type: cell-based; conditions: Homo sapiens, 96 h, 4 days incubation; read-out: HeLa-MaTu (Assay 4) Concentration for 50% inhibition of cellular proliferation, IC50
Experimental: 10.4 Assay 4: Proliferation Assay
Cultivated human HeLa-MaTu cervical carcinoma cells (obtained from EPO-GmbH, Berlin) were plated at a density of 3000 cells/measuring point in a 96-well multititer is plate in 200 μl of growth medium (DMEM/HAMS F12, 2 mM L-glutamine, 10% fetal calf serum). After 24 hours the cells of one plate (zero-point plate) were stained with crystal violet (see below), whereas the medium of the other plates was replaced with fresh culture medium (200 μl), to which the test substances had been added at various concentrations (0 μM, and in the range 0.01-30 μM; the final concentration of the solvent dimethylsulfoxide was 0.5%). The cells were incubated for 4 days in the presence of the test substances. Cellular proliferation was determined by staining the cells with crystal violet: the cells were fixed by adding 20 μl/measuring point of an 11% glutaraldehyde solution for 15 min at room temperature. After washing the fixed cells with water three times, the plates were dried at room temperature. The cells were stained by adding 100 μl/measuring point of a 0.1% crystal violet solution (pH adjusted to pH3 by adding acetic acid). After washing the stained cells with water three times, the plates were dried at room temperature. The dye was dissolved by adding 100 μl/measuring point of a 10% acetic acid solution. The extinction was determined photometrically at a wavelength of 595 nm. The percentage change in cell growth was calculated by standardization of the measured values to the extinction values of the zero-point plate (=0%) and the extinction of the untreated (0 μM) cells (=100%). The measured data were standardized to 0% inhibition (cell proliferation without inhibitor) and 100% inhibition (zero-point plate). The IC50 values were determined by means of a 4-parameter fit using the company's own software.

[2] = tested on: HeLa-MaTu human cervical carcinoma xenograft; assay: HeLa-MaTu cervical tumor xenograft model on NMRI nude mice; type: in vivo; conditions: oral
Experimental: HeLa-MaTu (EPO-GmbH, Berlin) human cervical carcinoma cells, which were grown in cell culture, were implanted subcutaneously in the flank of female NMRI nude mice. […] The study was terminated as soon as the tumors in one of the groups reached a size of approx. 150 mm^2.
(§1) The growth-inhibiting effect of the compounds was tested in the HeLa-MaTu cervical tumor model as xenograft on NMRI nude mice. […] Treatment of the established tumors was begun on day 4 after inoculation of the tumors.
as §1, §1
(§2) The study was designed for determining the initial response of a human cervical carcinoma xenograft model to treatments with the 5-Br comparative substance V12. The growth-inhibiting effect of the compounds was tested in the HeLa-MaTu cervical tumor model as xenograft on NMRI nude mice. V12 was dissolved completely in the solubilizer 40% polyethylene glycol 400 (PEG 400)/60% water to a final concentration of 0.7 mg/ml (group 2), 0.85 mg/ml (group 3), or 1.0 mg/ml (group 4). Treatment of the established tumors was begun on day 4 after inoculation of the tumors.
HeLa-MaTu (EPO-GmbH, Berlin) human cervical carcinoma cells, which were grown in cell culture, were implanted subcutaneously in the flank of female NMRI nude mice. […] The study was terminated as soon as the tumors in one of the groups reached a size of approx. 160 mm^2.
(§3) The growth-inhibiting effect of the compounds was tested in the HeLa-MaTu cervical tumor model as xenograft on NMRI nude mice. […] Treatment of the established tumors was begun on day 5 after inoculation of the tumors.
as §3, §3
The following test groups were used: • Group 1: Control, treatment with solubilizer (40% PEG 400/60% water) • Group 2: Compound according to WO 2005/037800 prepared according to preparation V14 disclosed above • (6 mg/kg, oral, 2x daily on day 5, 6, 12, 13, 19, 20) • Group 3: Compound according to WO 2005/037800 prepared according to preparation V14 disclosed above • (8 mg/kg, oral, 2× daily on day 5, 6, 12, 13, 19, 20) • Group 4: Compound according to WO 2005/037800 prepared according to preparation V14 disclosed above • (10 mg/kg, oral, 2× daily on day 5, 6, 12, 13, 19, 20)
as §2, with “substance V14.” for “substance V12.”, “mice. V14” for “mice. V12”, “of 0.6” for “of 0.7”, “2), 0.8” for “2), 0.85”, “day 5” for “day 4”

CDK2/CycE = target: T1, CDK2/CycE (Homo sapiens, UniProt P24941); assay: CDK2/CycE kinase assay (Assay 2); type: biochemical; conditions: 0.5 μM ATP, histon IIIS substrate; read-out: CDK2/CycE (Assay 2) Concentration for 50% inhibition of enzyme activity, IC50
T1 construct: purchased ProQinase GmbH, Freiburg; host or cells: baculovirus-infected insect cells (Sf9)
Experimental: 10.2 Assay 2: CDK2/CycE Kinase Assay
(§4) Recombinant CDK2 and CycE-GST fusion proteins, purified from baculovirus-infected insect cells (Sf9), were purchased from ProQinase GmbH, Freiburg. Histon IIIS, used as kinase substrate, was purchased from the company Sigma. CDK2/CycE (50 ng/measuring point) was incubated for 10 min at 22° C. in the presence of various concentrations of test substances (0 μM, and within the range 0.01-100 μM) in assay buffer [50 mM Tris/HCl pH8.0, 10 mM MgCl2, 0.1 mM Na ortho-vanadate, 1.0 mM dithiothreitol, 0.5 μM adenosine triphosphate (ATP), 10 μg/measuring point histon IIIS, 0.2 μCi/measuring point ^33P-gamma ATP, 0.05% NP40, 1.25% dimethylsulfoxide]. The reaction was stopped by adding EDTA solution (250 mM, pH8.0, 15 μl/measuring point).
(§5) From each reaction mixture, 15 μl was applied to P30 filter strips (from Wallac), and unincorporated ^33P-ATP was removed by washing the filter strips three times, for 10 min each time, in 0.5% phosphoric acid. After drying the filter strips for 1 hour at 70° C., the filter strips were covered with scintillator strips (MeltiLex™ A, from Wallac) and stoved for 1 hour at 90° C. The amount of incorporated ^33P (substrate phosphorylation) was determined by scintillation measurement in a gamma-radiation measuring instrument (Wallac). The measured data were standardized to 0% inhibition (enzyme reaction without inhibitor) and 100% inhibition (all assay components except enzyme). The IC50 values were determined by means of a 4-parameter fit using the company's own software.

CDK1/CycB = target: T2, CDK1/CycB (Homo sapiens, UniProt P06493); assay: CDK1/CycB kinase assay (Assay 1); type: biochemical; conditions: 0.5 μM ATP, histon IIIS substrate; read-out: CDK1/CycB (Assay 1) Concentration for 50% inhibition of enzyme activity, IC50
T2 construct: purchased ProQinase GmbH, Freiburg; host or cells: baculovirus-infected insect cells (Sf9)
T2 sequence (P06493 whole entry): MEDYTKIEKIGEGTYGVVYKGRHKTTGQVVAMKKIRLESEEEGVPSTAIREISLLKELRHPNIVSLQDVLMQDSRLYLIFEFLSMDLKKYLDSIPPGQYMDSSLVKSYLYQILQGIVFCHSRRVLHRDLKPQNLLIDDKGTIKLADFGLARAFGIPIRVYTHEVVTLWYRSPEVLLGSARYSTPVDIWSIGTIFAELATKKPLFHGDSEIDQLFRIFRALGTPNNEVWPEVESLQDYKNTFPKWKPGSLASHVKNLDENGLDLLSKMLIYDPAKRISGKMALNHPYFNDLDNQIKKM
T2 sequence (P14635 whole entry partner): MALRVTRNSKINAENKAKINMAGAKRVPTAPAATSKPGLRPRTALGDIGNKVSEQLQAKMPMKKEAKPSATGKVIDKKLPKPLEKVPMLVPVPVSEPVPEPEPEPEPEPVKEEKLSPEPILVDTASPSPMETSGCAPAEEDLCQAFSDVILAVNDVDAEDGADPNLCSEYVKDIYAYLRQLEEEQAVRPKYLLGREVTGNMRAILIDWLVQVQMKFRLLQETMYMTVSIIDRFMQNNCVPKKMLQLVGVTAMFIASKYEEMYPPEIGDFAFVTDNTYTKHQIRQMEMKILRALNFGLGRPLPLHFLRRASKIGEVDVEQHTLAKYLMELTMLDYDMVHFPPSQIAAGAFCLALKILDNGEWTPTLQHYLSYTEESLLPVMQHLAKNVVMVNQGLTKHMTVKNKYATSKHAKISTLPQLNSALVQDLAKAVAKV
Experimental: 10.1 Assay 1: CDK1/CycB Kinase Assay
Recombinant CDK1 and CycB-GST fusion proteins, purified from baculovirus-infected insect cells (Sf9), were purchased from ProQinase GmbH, Freiburg. The histon IIIS used as kinase substrate is commercially available from the company Sigma.
as §4, with “CDK1/CycB (200” for “Recombinant CDK2 and CycE-GST fusion proteins, purified from baculovirus-infected insect cells (Sf9), were purchased from ProQinase GmbH, Freiburg. Histon IIIS, used as kinase substrate, was purchased from the company Sigma. CDK2/CycE (50”
as §5

[3] = 2.5 mg/kg (group 4), 2x daily on day 5, 6, 12, 13, 19, 20, day 20
[4] = 1.5, 2.0, 2.5 mg/kg, 2x daily on day 5, 6, 12, 13, 19, 20
[5] = Mus musculus, 480 h, 2.5 mg/kg (group 4), 2x daily on day 5, 6, 12, 13, 19, 20, day 20, read-out: treatment/control ratio T/C (tumor weight)

In the case of `C[C@@H](O)[C@@H](C)Oc1nc(Nc2ccc(S(C)(=N)=O)cc2)ncc1C(F)(F)F` (mixture of isomers) [Example 2-SI-2, (RS)-S-(4-{[4-{[(1R,2R)-2-Hydroxy-1-methylpropyl]oxy}-5-(trifluoromethyl)pyrimidin-2-yl]amino}phenyl)-S-methylsulfoximide], the pIC50 [1] was 8.10, the “reduction of tumor weight at the end of the study to % of the control group” value (“reduction … to % of the control group” for short) [2, 3] was 18% and the “effect on tumor growth (in words)” value [2, 4] was “dose-dependent inhibition of tumor growth”. For the same molecule, the response vs control in vivo at 2.5 mg/kg [2, 5] was 18%.

For `C[C@@H](O)[C@@H](C)Oc1nc(Nc2ccc(S(=N)(=O)C3CC3)cc2)ncc1C(F)(F)F` (mixture of isomers) [Example 1-SI-2, (RS)-S-Cyclopropyl-S-(4-{[4-{[(1R,2R)-2-hydroxy-1-methylpropyl]oxy}-5-(trifluoromethyl)pyrimidin-2-yl]amino}phenyl)sulfoximide], the “reduction … to % of the control group” value [2, 3] was 19%, the “effect on tumor growth (in words)” value [2, 4] was “dose-dependent inhibition of tumor growth” and the response vs control in vivo at 2.5 mg/kg [2, 5] was 19%.

`CCS(=N)(=O)c1ccc(Nc2ncc(C(F)(F)F)c(N[C@H](C)[C@@H](C)O)n2)cc1` (mixture of isomers) [Example 6-SI-1, (RS)-S-Ethyl-S-(4-{[4-{[(1R,2R)-2-hydroxy-1-methylpropyl]amino}-5-(trifluoromethyl)pyrimidin-2-yl]amino}phenyl)sulfoximide] was tested, and the pIC50 [1] was 7.80.

For `CCS(=N)(=O)c1ccc(Nc2ncc(C(F)(F)F)c(N[C@H](C)[C@@H](C)O)n2)cc1` (mixture of isomers) [Example 6-SI-2, (RS)-S-Ethyl-S-(4-{[4-{[(1R,2R)-2-hydroxy-1-methylpropyl]amino}-5-(trifluoromethyl)pyrimidin-2-yl]amino}phenyl)sulfoximide], the “reduction … to % of the control group” value ([2]; 5 mg/kg (group 4), 2x daily on day 4, 5, 11, 12, 17, 18, day 20) was 8%, the “effect on tumor growth (in words)” value ([2]; 3, 4, 5 mg/kg, 2x daily on day 4, 5, 11, 12, 17, 18) was “dose-dependent inhibition of tumor growth” and the response vs control in vivo at 5 mg/kg ([2]; Mus musculus, 480 h, 5 mg/kg (group 4), 2x daily on day 4, 5, 11, 12, 17, 18, day 20, read-out: treatment/control ratio T/C (tumor weight)) was 8%.

For `C[C@@H](Nc1nc(Nc2ccc(S(=N)(=O)C3CC3)cc2)ncc1C(F)(F)F)C(C)(C)O` (mixture of isomers) [Example 5-SI-2, (RS)-S-Cyclopropyl-S-(4-{[4-{[(R)-2-hydroxy-1,2-dimethylpropyl]amino}-5-(trifluoromethyl)pyrimidin-2-yl]amino}phenyl)sulfoximide], the “effect on tumor growth (in words)” value ([2]; 5 mg/kg, 2x daily on day 4, 5, 11, 12) was “greatly inhibited tumor growth”, the “reduction … to % of the control group” value ([2]; 5 mg/kg, 2x daily on day 4, 5, 11, 12, day 17) was 7% and the response vs control in vivo at 5 mg/kg ([2]; Mus musculus, 408 h, 5 mg/kg, 2x daily on day 4, 5, 11, 12, day 17, read-out: treatment/control ratio T/C (tumor weight)) was 7%.

For `C[C@@H](Nc1nc(Nc2ccc(S(C)(=N)=O)cc2)ncc1C(F)(F)F)C(C)(C)O` (single isomer, unassigned) [Example 9-SI-1], the pIC50 (CDK2/CycE) was 8.30.

In the case of `C[C@@H](Nc1nc(Nc2ccc(S(C)(=N)=O)cc2)ncc1C(F)(F)F)C(C)(C)O` (single isomer, unassigned) [Example 9-SI-2], the pIC50 (CDK2/CycE) was 8.52.

In the case of `C[C@@H](Nc1nc(Nc2ccc([S@](=N)(=O)C3CC3)cc2)ncc1Br)C(C)(C)O` [Example V11, (R)-S-[4-({5-bromo-4-[(R)-(2-hydroxy-1,2-dimethylpropyl)amino]pyrimidin-2-yl}amino)phenyl]-S-cyclopropyl-sulfoximide], the pIC50 [1] was 7.89, the “tolerability of the cyclic treatment regimen” value ([2]; 8 mg/kg, 2x daily on 2 successive days followed by 5 treatment-free days) was “well-tolerated” and the “effect on tumor growth (in words)” value ([2]; 8 mg/kg, 2x daily on day 4, 5, 11, 12) was “inhibited tumor growth”. The “reduction … to % of the control group” value ([2]; 8 mg/kg, 2x daily on day 4, 5, 11, 12, day 17) was 39%, the response vs control in vivo at 8 mg/kg ([2]; Mus musculus, 408 h, 8 mg/kg, 2x daily on day 4, 5, 11, 12, day 17, read-out: treatment/control ratio T/C (tumor weight)) was 39% and the pIC50 (CDK1/CycB) was 8.10. It also gave a pIC50 (CDK2/CycE) of 8.15.
